Measured values published in patent US8182983B2, “Method for determining immune system affecting compounds” (Canimguide Therapeutics AB, priority 2002, dated 2012).

B1: MMP-2: matrix metalloproteinase (R&D Systems), activated (protein, UniProt P08253 110-660, looked up)
72 kDa type IV collagenase: YNFFPRKPKWDKNQITYRIIGYTPDLDPETVDDAFARAFQVWSDVTPLRFSRIHDGEADIMINFGRWEHGDGYPFDGKDGLLAHAFAPGTGVGGDSHFDDDELWTLGEGQVVRVKYGNADGEYCKFPFLFNGKEYNSCTDTGRSDGFLWCSTTYNFEKDGKYGFCPHEALFTMGGNAEGQPCKFPFRFQGTSYDSCTTEGRTDGYRWCGTTEDYDRDKKYGFCPETAMSTVGGNSEGAPCVFPFTFLGNKYESCTSAGRSDGKMWCATTANYDDDRKWGFCPDQGYSLFLVAAHEFGHAMGLEHSQDPGALMAPIYTYTKNFRLSQDDIKGIQELYGASPDIDLGTGPTPTLGPVTPEICKQDIVFDGIAQIRGEIFFFKDRFIWRTVTPRDKPMGPLLVATFWPELPEKIDAVYEAPQEEKAVFFAGNEYWIYSASTLERGYPKPLTSLGLPPDVQRVDAAFNWSKNKKTYIFAGDKFWRYNEVKKKMDPGFPKLIADAWNAIPDNLDAVVDLQGGGHSYFFKGAYYLKLENQSLKSVKFGSIKSDWLGC
modifications: activated

How the values were obtained:
Format in all cases: cell-based, human
[1] = system: PBMC from healthy volunteers; assay: Inhibition of IL-1Ra production by PBMC with Tosyl
Experimental: Monokines were assessed by ELISA using the DuoSet ELISA development system for human IL-6, TNF-α or IL-1β (R&D Systems Europe, Ltd. UK) following the manufacturer's recommended procedures. Lower limit of detection was […] for IL-6, […] for TNF-α and […] for IL-1β. IL-10 was detected with a kit from Diaclone Research, FR. The lower limit of detection was […]. Human IL-1Ra was detected with a quantitative sandwich ELISA using a monoclonal mouse anti-human IL-1Ra as capture antibody and a biotinylated goat anti-human IL-1Ra as developing antibody (both from R&D Systems). […] Following incubation for 1 hr at room temperature, plates were washed and the amount of bound IL-1Ra was measured by hydrolysis of paranitrophenyl phosphate (Sigma). Optical density was read at dual wavelengths, 405 nm and 570 nm, respectively, in a Multiscan EX microplate reader (Labsystems). […]
Inhibition of IL-1Ra production by PBMC with Tosyl PBMC (2×10^6/ml) from healthy volunteers were pre-incubated with various concentrations of Na-p-Tosyl-L-lysine chloromethyl ketone (Tosyl, Sigma) diluted in RPMI1640/2% HSA for 30 minutes at 37° C. after which the cell suspensions were washed three times in RPMI/2% HSA. […] Viability of cultured PBMCs were also assessed after 24 hrs by Trypan blue exclusion and found to be 100%. […]

[2] = system: PBMC from RCC patients; assay: TNF-α in PHA stimulated PBMC cultures with chlorambucil; conditions: chlorambucil 1 μg/ml, 72 hours, responders vs non-responders to interleukin-2
Experimental: PHA stimulated proliferation of PBMC with and without chlorambucil Venous blood was drawn at the indicated time points from RCC patients undergoing IL-2 (Proleukin, Chiron, NL) therapy. Mononuclear cells were isolated by Ficoll-Isopaque (Pharmacia, SE) density gradient centrifugation. 5×10^4 PBMC in a final volume of 200 μl were seeded into round-bottomed microtiter plates (Corning Inc. NY, US) in culture medium consisting of RPMI 1640 supplemented with 100 IU/ml Penicillin, 100 μg/ml Streptomycin (Flow laboratories) and 10% heat-inactivated, autologous fresh serum. […]
PHA-stimulated cultures with or without chlorambucil (1 µg/ml) were set up in parallel as described above for mitogen-stimulated cultures. […] The amount of TNF-α in the SNs was evaluated with an ELISA kit from Immunotech S.A., FR, according to the manufacturer's instructions. […]
Comparisons between the proliferative response to PHA in different groups or at different test occasions were done on logarithmated mean values of dpm of triplicates using unpaired t-test. For the determination of the effect of addition of CHL on the proliferative response of PHA-stimulated PBMCs, a modulation index (MI) was calculated according to the following formula: MI=log(dpm PHA+drug/dpm PHA).

[3] = system: normal PBMCs; assay: Fragmentation of IgG and serum albumin using MMPs, IL-6 inducing activity of supernatants; conditions: supernatants tested on normal PBMCs; for release of fragments inducing or modulating IL-6 production from albumin: serum albumin incubated with MMP; for release of fragments inducing or modulating IL-6 production from IgG: IgG incubated with MMP
Experimental: MMP-1, -2, -13 (R&D Systems) and MMP-3 and -7 (Chemicon, UK) were activated according to instructions of the manufacturer. […] The mixtures were incubated for 5-20 hours at 37° C. Parallel incubations of MMP or the substrates alone, in respective buffer, were set up as controls. The mixtures were buffer exchanged to RPMI as described previously and filtered through a 0.45 μm Millex-HV syringe filter (Millipore, MA, US). Storing of mixtures, when needed, was performed at −70° C. until analysing by gel-electrophoresis and testing for monokine inducing activity in fresh, normal PBMC as described above.

[4] = system: PBMC from healthy donors; assay: IL-2 induced proliferation of PBMC in the presence of collagen/collagen fragments; conditions: collagen 26 ug/ml, PBMCs from healthy donors, autologous serum
Experimental: 100 μl of RPMI1640 supplemented with 200 IU/ml penicillin, […] streptomycin, 4 mM L-glutamine (all from Sigma Chemical Co. MO, US) and 20% heat-inactivated human serum (autologous or from cancer patients) were added to uncoated, HSA or HSA/IgG coated tissue culture microtiter plates. PBMC, isolated from healthy individuals or patients with metastatic renal cell carcinoma, were diluted in RPMI/2%1-ISA at a concentration of 5×10^5/ml and 100 μl were added to the microtiter wells. Interleukin-2 (IL-2, Proleukin, Chiron, NL), at a final concentration of 120 IU/well, was added to some wells. Cells were cultured for 7 days in a humidified, 5% CO2-atmosphere at 37° C.
Proliferation was assayed by incorporation of 1.6 μCi/well of [3H]-thymidine (Amersham Int., UK) during the last 18 hrs. Mean values of dpm (disintegrations per minute) of triplicates were used for the calculations.
Purified collagen from human skin (Sigma) at a concentration of 100 µg/ml was incubated in 100 mM Tris-HCl, pH 7.6, containing 0.15 M NaCl, 10 mM CaCl2 and 0.05% Brij35 over night at 37° C. The buffer was then exchanged to RPMI1640 by gel filtration through a Sephadex-G25 (PD-10) column (Amersham Biosciences) and filtered through a 0.45 μm Millex-HV syringe filter (Millipore) and frozen at −70° C. until use. […]

[5] = system: normal PBMCs; assay: Homogenised, washed tumour tissue incubated with MMP-2, IL-6 inducing activity; conditions: MMP-2 5 ng/ml; 20 hours at 37° C.
Experimental: The collection, washing and homogenisation of tumour cryo sections (3×300 μm) were carried out as described above. The pelleted tumour tissue was suspended in 0.5 ml cold RPMI/PEST. MMP-2 (R&D Systems, UK), activated according to instructions from the manufacturer, was added at a final concentration of 5 ng/ml. The tumour tissue suspension was incubated with MMP-2 for 20 h at 37° C. and the supernatant collected after centrifugation. Parallel incubation of tumour tissue with no addition of MMP-2 was set up as a control. The mixtures were buffer exchanged to RPMI by gel filtration through a Sephadex-G25 (PD-10) column (Amersham Biosciences, SE) and filtered through a 0.45 μm Millex-HV syringe filter (Millipore, MA, US). Finally, the mixtures were analysed by gel-electrophoresis and tested for monokine inducing activity in fresh normal PBMC as described above.

Molecule	release of fragments inducing or modulating IL-6 production from albumin [3]	release of fragments inducing or modulating IL-6 production from IgG [3]	further results
Cc1ccc(S(=O)(=O)NC(CCCCN)C(=O)CCl)cc1 [Tosyl, Na-p-Tosyl-L-lysine chloromethyl ketone]	–	–	Viability of cultured PBMCs by Trypan blue exclusion ([1]; after 24 hrs, PBMC pre-incubated with Tosyl): 100%; effect on production of IL1Ra ([1]; non-toxic concentrations, PBMC from healthy individuals (n=9), plates pre-coated with HSA or HSA/IgG): significantly reduced production
O=C(O)CCCc1ccc(N(CCCl)CCCl)cc1 [chlorambucil, Chlorambucil]	–	–	TNF-α production in PHA stimulated cultures with chlorambucil [2]: in non-responders TNF-α production is more stimulated than in responders
MMP-1: matrix metalloproteinase (R&D Systems), activated	released active fragments	–	–
MMP-3: matrix metalloproteinase (Chemicon), activated	released active fragments	released active fragments	–
MMP-7: matrix metalloproteinase (Chemicon), activated	–	released active fragments	–
collagen	–	–	effect on IL-2 induced proliferation [4]: strongly inhibitory effect; effect on IL-2 induced proliferation ([4]; listed as collagen/collagen fragments): strong inhibitory effect was demonstrated in two out of three experiments
B1	released active fragments	released active fragments	release of IL-6 inducing activity from washed tumour tissue [5]: modulated the release of IL-6 inducing activity
